Results taken from patent publication US12708630B2, “Combined therapy of 4′-thio-5-aza-2′-deoxycytidine and Venetoclax” (PINOTBIO, INC., priority 2021, dated 2026).
Entries after “also recorded” stand apart in the source; their conditions may differ. Like-named read-outs stand apart in the source and are kept apart here.

Tests used:
CEBP/epsilon, CDKN1B = assay: CEBP/epsilon and CDKN1B expression in AML cell lines; assay type: cell-based
Description: CEBP/epsilon and CDKNIB expression was identified and comparatively analyzed in various AML cell lines to determine the mode of target engagement induced by DNMT1 inhibition upon treatment with Aza-T-dCyd (NTX-301) (FIG. 16).

H2AX, Chk1, p53 = assay: DNA damage response markers; assay type: cell-based
Molm13 Xenograft model = assay: Molm13 Xenograft model; assay type: in vivo; details: oral 0.2-1.5 mg/kg
[1] = tested on: systemic MV4-11 engraftment model; details: for survival: oral
Description: After establishing a systemic MV4-11 engraftment model that more accurately depicts the disease in humans, Aza-T-dCyd was administered orally at doses ranging from 0.4 to 1.5 mg/kg.
After establishment of the systemic MV4-11 engraftment model, Aza-T-dCyd was administered orally at doses of 1.5, 2.0, and 2.5 mg/kg (using the standard dose/dosing schedule used in preclinical trials for decitabine/azacytidine).
After establishing a systemic MV4-11 engraftment model, blood was collected at pre-treatment (Day 21) and mid-treatment (Day 36, 56, 77) in the Aza-T-dCyd and Decitabine/Azacytidine groups and analyzed for complete blood count (CBC) values.
To determine whether the anti-cancer efficacy in the systemic MV4-11 engraftment model was directly related to the ability to suppress the number of cancer cells, we performed experiments to measure body luminescence after systemic engraftment using the luciferase-transfected Mv4-11 cell line.

HL-60 AML xenograft = HL-60 AML xenograft model; assay type: in vivo; details: 2.0 mg/kg
OVCAR-3 (ovarian) = OVCAR-3 (ovarian) xenograft model; assay type: in vivo; details: NSG mouse, (4) cycles
Description: (§1) The efficacy of Aza-T-dCyd was confirmed by tumor growth curves after administration of Aza-T-dCyd in various solid cancer xenograft models. […]

BL0382PD PDX (bladder) = assay type: in vivo, Mouse; details: NSG mouse, 1 mg/kg, (4) cycles
Description: as §1

MDS/AML model = assay: AUC exposure versus efficacy in the MDS/AML model; assay type: in vivo
[2] = Human PK simulation / human dose projection; details: 16 mg/day human dose
Description: The human dose of NTX-301 should be divided by 3 or 4 to adjust the mouse exposure.
The 96 mg/day must be divided by 3 or 4, resulting in 24 to 32 mg/day.
This was a safe and effective dose in mice.
Furthermore, based on the results of the combination with Venetoclax in the mouse model, an effective dose of 0.5 to 1.0 mg/kg was determined, which translates to a human dose of 8 to 16 mg+Venetoclax.

MV4-11 AML cells = assay: MV4-11 AML xenograft implanted subcutaneously, combination with venetoclax; assay type: in vivo, mice; design: anti-cancer effect (tumor volume): dose or concentration left out as unconfirmed
Description: After establishing a xenograft systemic AML model in which MV4-11 AML cells were implanted subcutaneously in mice, Aza-T-dCyd alone at 2.0 mpk for 1 cycle (5 days on, 2 days off, 5 days on, 9 days off) was administered (PO) or Aza-T-dCyd 0.5, 1.0 or 2.0 mpk plus venetoclax 50 mpk or 100 mpk administered orally (PO) for 1 cycle (venetoclax on for 5 days, off for 2 days, repeated for 3 weeks). Anti-cancer efficacy was determined in disease models in which azacitidine 5.0 mpk was administered intraperitoneally (IP) alone or in combination with optimal dose of azacitidine (2.5 mpk) and venetoclax 50 mpk or 100 mpk as a control.

cytidine deaminase = assay: Degradation by cytidine deaminase
Description: Decitabine/Azacytidine is susceptible to metabolism by cytidine deaminases in the body, resulting in an unstable PK profile that limits its efficacy.

[3] = cited from earlier work
DNMT1 = DNMT1 (Homo sapiens, UniProt P26358); assay: DNMT1 protein Western blotting in cancer cell lines; assay type: cell-based; design: endogenous in cells; host or cells: MV4-11, KG-1a, CCRF-CEM, NCI-H23, HCT-116, IGROV-1 (also HL-60, THP-1); details: for DNMT1 protein (Western blotting): AML cell lines MV4-11 and KG-1a
DNMT3B = DNMT3B (Homo sapiens, UniProt Q9UBC3); assay: Western blotting of Molm13 xenograft cancer tissues, DNMT3B; assay type: in vivo; design: cancer tissues were harvested and analyzed by Western blotting; from tissue; host or cells: Molm13 leukemia xenograft cancer tissue
[4] = MV4-11, HL-60 and KG-1a cells, 72 hours
[5] = THP-1 cells, different concentrations

Chain of DNMT1 (P26358 whole entry): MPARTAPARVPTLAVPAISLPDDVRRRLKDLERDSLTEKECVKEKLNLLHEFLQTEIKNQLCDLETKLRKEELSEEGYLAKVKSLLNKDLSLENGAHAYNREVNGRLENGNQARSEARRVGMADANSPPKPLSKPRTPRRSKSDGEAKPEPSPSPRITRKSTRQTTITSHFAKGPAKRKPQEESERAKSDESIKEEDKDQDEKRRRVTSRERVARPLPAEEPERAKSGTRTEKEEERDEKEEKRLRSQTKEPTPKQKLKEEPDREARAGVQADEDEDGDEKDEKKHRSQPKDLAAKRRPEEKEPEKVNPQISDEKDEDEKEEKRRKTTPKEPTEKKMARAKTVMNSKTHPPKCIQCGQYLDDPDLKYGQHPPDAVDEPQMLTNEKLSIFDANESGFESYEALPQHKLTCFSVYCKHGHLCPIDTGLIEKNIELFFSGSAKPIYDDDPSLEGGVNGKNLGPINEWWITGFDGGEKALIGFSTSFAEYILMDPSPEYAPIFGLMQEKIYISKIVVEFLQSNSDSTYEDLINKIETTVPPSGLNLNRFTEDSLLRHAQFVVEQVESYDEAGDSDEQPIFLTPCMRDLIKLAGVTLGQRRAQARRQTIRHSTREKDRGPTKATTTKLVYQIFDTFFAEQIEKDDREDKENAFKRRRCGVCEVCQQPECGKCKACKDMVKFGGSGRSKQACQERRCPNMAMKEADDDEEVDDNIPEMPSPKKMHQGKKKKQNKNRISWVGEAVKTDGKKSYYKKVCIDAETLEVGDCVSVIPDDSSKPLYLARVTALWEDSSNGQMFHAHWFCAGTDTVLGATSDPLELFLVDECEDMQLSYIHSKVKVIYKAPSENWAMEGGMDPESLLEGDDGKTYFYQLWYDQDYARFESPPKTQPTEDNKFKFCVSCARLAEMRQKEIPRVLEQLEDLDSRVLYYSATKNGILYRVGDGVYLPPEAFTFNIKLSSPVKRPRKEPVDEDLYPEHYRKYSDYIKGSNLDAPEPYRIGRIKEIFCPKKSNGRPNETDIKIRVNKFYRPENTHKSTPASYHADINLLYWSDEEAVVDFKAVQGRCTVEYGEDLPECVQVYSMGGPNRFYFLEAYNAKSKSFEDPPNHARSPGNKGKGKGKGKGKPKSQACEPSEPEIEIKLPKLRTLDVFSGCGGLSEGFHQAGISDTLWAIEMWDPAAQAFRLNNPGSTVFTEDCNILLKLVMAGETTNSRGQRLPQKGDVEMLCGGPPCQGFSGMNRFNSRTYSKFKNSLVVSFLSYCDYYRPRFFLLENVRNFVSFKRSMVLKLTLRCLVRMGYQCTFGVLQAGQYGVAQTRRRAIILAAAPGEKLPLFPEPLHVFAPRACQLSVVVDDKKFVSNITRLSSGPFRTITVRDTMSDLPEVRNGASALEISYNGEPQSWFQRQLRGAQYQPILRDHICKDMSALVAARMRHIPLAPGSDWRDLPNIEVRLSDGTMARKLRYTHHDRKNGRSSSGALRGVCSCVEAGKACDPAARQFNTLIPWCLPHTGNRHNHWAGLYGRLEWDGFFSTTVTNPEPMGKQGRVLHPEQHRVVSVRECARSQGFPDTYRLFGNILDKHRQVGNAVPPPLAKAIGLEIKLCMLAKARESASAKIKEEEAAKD

SMILES: Nc1ncn([C@H]2CC(O)[C@@H](CO)S2)c(=O)n1 (stereo partly shown) [Aza-T-dCyd, 4′-thio-5-aza-2′-deoxycytidine]
- CEBP/epsilon and CDKN1B intracellular protein expression (CEBP/epsilon, CDKN1B; [4]): expression of CEBP/epsilon and CDKN1B was increased
- CEBP/epsilon and CDKN1B expression (CEBP/epsilon, CDKN1B; [5]): increased CEBP/epsilon expression and CDKN1B expression
- H2AX phosphorylation (H2AX, Chk1, p53): increased H2AX phosphorylation
- expression of p53 protein (H2AX, Chk1, p53): increased expression of p53 protein
- phosphorylation of Chk1 (H2AX, Chk1, p53): increased phosphorylation of Chk1
- anti-cancer effect (Molm13 Xenograft model): potent anti-cancer effect in a dose-dependent manner
- toxicity signals (body weight changes) (Molm13 Xenograft model): without any toxicity signals
- anti-AML activity and survival ([1]; Aza-T-dCyd oral 1.5, 2.0 and 2.5 mg/kg, decitabine/azacytidine at standard preclinical dose/schedule): very good anti-AML activity and improved survival
- body luminescence ([1]; luciferase-transfected Mv4-11 cell line, systemic engraftment): inhibited body luminescence more strongly than the actual Azacytidine treatment
- complete blood count (WBC, RBC, Neutrophil, Platelet) ([1]; mouse, in vivo): no changes
- survival ([1]; highest dose (range 0.4 to 1.5 mg/kg)): more than half of the mice survived to the end of the experiment
- survival ([1]; lowest dose of 0.4 mg/kg): statistically significant survival improvement
- tumor suppression (HL-60 AML xenograft): strong tumor suppression
- Optimal T/C (%) (test/control) (OVCAR-3 (ovarian); 0.5 mg/kg): 40%
- Optimal T/C (%) (test/control) (OVCAR-3 (ovarian); 1 mg/kg): 4%
- Optimal T/C (%) (test/control) (BL0382PD PDX (bladder)): 23%
- AUC value at which efficacy is shown (MDS/AML model; MDS/AML model): 60 ng·h/mL
- AUC value of best therapeutic efficacy (MDS/AML model; MDS/AML model): 200 to 250 ng·h/mL
- AUC of best efficacy relative to the HNSTD (MDS/AML model; most sensitive species): about 25%
- AUC of best efficacy relative to the NOAEL value (MDS/AML model; most sensitive species): about 50%
- human AUC converted to the mouse AUC value (factor of 3-4) [2]: 150 to 200 ng·h/mL
- anti-cancer effect (tumor volume) (MV4-11 AML cells; Aza-T-dCyd 0.5 mpk with venetoclax, FIGS. 30 and 31): complete tumor regression
- anti-cancer efficacy of monotherapy versus Azacytidine/Venetoclax (MV4-11 AML cells; Aza-T-dCyd 2.0 mpk alone, FIGS. 28 to 33): as effective as the Azacytidine/Venetoclax group; also recorded: anti-cancer efficacy equivalent to or superior to that of Azacytidine/Venetoclax combination
- anti-cancer effect (tumor volume), single agent (MV4-11 AML cells; administered alone (Aza-T-dCyd 2 mpk), FIGS. 30 and 31, listed as NTX-301): sufficiently working; also recorded: sufficiently anti-tumorigenic
- rate of degradation by cytidine deaminase (cytidine deaminase): slower rate of degradation by cytidine deaminase
- AUC value ([3]; 16 mg/day dose, NCI's Phase 1 trial): about 50 ng*h/mL
- side effects ([3]; Phase 1a, solid tumors, dose approximately twice that of conventional decitabine): no significant side effects were observed
- disease control rate ([3]; clinical trials, 32 mg/day dose): high disease control rate
- MTD dose in Phase 1 ([3]; humans): 32 mg
- DNMT1 protein (Western blotting) (DNMT1; 20 nM): completely reduced DNMT1
- DNMT1 protein (Western blotting) (DNMT1): reduced DNMT1 protein in a concentration-dependent manner
- DNMT1 inhibition (DNMT1; CCRF-CEM (ALL cell line) cells, FIG. 12): inhibits DNMT1
- DNMT1 inhibition (DNMT1; CCRF-CEM (ALL) and solid cancer cell line): can inhibit DNMT1 in a concentration-dependent manner
- DNMT1 inhibition (DNMT1; KG-1a (AML cell line) cells, FIG. 11): inhibits DNMT1
- DNMT1 inhibition (DNMT1; MV4-11 (AML cell line) cells, different concentrations, FIG. 10): inhibits DNMT1
- DNMT1 intracellular protein expression (DNMT1; [4]): expression of DNMT1 was inhibited
- DNMT1 inhibition (DNMT1; NCI-H23, HCT-116 and IGROV-1 cell lines, FIG. 13): inhibits DNMT1
- DNMT1 inhibition (DNMT1; [5]): induced DNMT1 inhibition in a dose-dependent manner
- DNMT3B protein of approximately 90 kDa (DNMT3B; Molm13 AML xenograft, above 0.4 mg/kg): clear reduction of DNMT3B protein
- DNMT3B in cancer tissues (Western blotting) (DNMT3B; Molm13 xenograft, after administration): strongly inhibited DNMT1 and DNMT3B in a concentration-dependent manner
